The text below walks through data of patent publication US5091524A, “Glycosidase inhibitor salbostatin, process for its preparation, and its use” (Hoechst Aktiengesellschaft, priority 1988, dated 1992).

This assay addresses T1, trehalase (Sigma No. T 8778) (Sus scrofa, UniProt I3LIR5).
T1 construct: purchased Sigma T 8778
T1 sequence (I3LIR5 24-583): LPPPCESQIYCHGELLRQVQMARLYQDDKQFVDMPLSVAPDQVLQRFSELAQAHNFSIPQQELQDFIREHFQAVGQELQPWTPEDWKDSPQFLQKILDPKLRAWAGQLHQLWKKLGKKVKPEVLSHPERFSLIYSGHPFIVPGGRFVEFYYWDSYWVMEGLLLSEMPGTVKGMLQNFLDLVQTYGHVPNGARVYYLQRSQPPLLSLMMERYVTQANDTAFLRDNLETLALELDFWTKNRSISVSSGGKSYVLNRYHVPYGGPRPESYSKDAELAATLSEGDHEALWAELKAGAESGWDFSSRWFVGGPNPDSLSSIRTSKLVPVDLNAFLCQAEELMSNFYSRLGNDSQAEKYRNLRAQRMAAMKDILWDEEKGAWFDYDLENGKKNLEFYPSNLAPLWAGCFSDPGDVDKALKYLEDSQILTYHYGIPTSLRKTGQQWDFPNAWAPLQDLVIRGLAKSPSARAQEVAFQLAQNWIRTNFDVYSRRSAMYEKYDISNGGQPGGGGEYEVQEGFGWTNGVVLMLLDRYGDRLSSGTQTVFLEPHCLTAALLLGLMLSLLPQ
The assay can be described thus: Trehalase assay (colorimetric determination of D-glucose liberated from trehalose). It is filed as biochemical. The procedure: The trehalase assay is based on the colorimetric determination of D-glucose, which is liberated from trehalose by the action of trehalase.
Before the assay was started, trehalase (Sigma No. T 8778) was diluted with 20 mM phosphate buffer pH 6.5 in a ratio of 1 1000. Trehalose was dissolved in a concentration of 0.lM in 0.lM 2-(n-morpholino)ethanesulfonic acid.
At the beginning of the assay, 100 μl each of H2 O, trehalose and trehalase were combined and the mixture was incubated at 37° C. for 30 minutes. The reaction was stopped by heating the batch to 100° C. The control batch was stopped immediately (0 minutes) by boiling. Where appropriate, salbostatin was added to the reaction batches in various concentrations in place of water.
The glucose which was liberated from the trehalose was determined colorimetrically. To this end, the glucose was reacted by glucose oxidase and the H2 O2 which formed was used for oxidizing o-dianisidine.The oxidized odianisidine was determined using a photometer. All the abovementioned reagents for glucose determination came from the glucose kit manufactured by Sigma (Sigma Chemie GmbH, Deisenhofen, Germany; No. 510-DA), and the assay was carried out in accordance with the enclosed protocol.

For `OCC1=C[C@H](N[C@H]2CO[C@H](CO)[C@@H](O)[C@@H]2O)[C@H](O)[C@@H](O)[C@@H]1O` [salbostatin], the Ki (competitive with regard to trehalose, read-out: inhibitor constant Ki) was found to be 180 nM. The IC50 (substrate trehalose, 37° C., 30 minutes, read-out: salbostatin concentration showing an enzyme inhibition of 50%) lay within 10 to 100 nM. In addition, the “type of inhibition (enzyme kinetics)” value (with regard to trehalose) was “competitive trehalase inhibitor”.

Usually Ki stands for the equilibrium dissociation constant of an inhibitor or competing ligand from its target.
